# Experimental data as given in patent US12077503B2, “Substituted cyclic amides and their use as herbicides” (FMC CORPORATION, priority 2015, dated 2024).
# Experiments:
# Type in all cases: in vivo
# [1] = tested on: ragweed (common ragweed, Ambrosia elatior); test: Test A preemergence; conditions: Ambrosia artemisiifolia, pre-emergence, 240 h, 0 to 100 scale where 0 is no effect and 100 is complete control, read-out: Ragweed plant response rating
# Summary of the method: (§1)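 Preemergence soil spray on seeded pots or post-emergence spray on 1–2 leaf plants, in loam–sand blend. Greenhouse ~10 d. Visual rating 0–100 against untreated plants.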
# [2] = tested on: barnyardgrass (Echinochloa crus-galli); test: Test A preemergence; conditions: Echinochloa crus-galli, pre-emergence, 240 h, Preemergence
# Summary of the method: as §1
# [3] = tested on: ryegrass, Italian (Italian ryegrass, Lolium multiflorum); test: Test A preemergence; conditions: Lolium multiflorum, pre-emergence, 240 h, 0 to 100 scale where 0 is no effect and 100 is complete control, read-out: Ryegrass, Italian plant response rating
# Summary of the method: as §1
# [4] = tested on: pigweed (Amaranthus retroflexus); test: Test A preemergence; conditions: Amaranthus retroflexus, pre-emergence, 240 h, 0 to 100 scale where 0 is no effect and 100 is complete control, read-out: Pigweed plant response rating
# Kochia (Kochia scoparia) [5] = test: Test A preemergence; conditions: Bassia scoparia, pre-emergence, 240 h, 0 to 100 scale where 0 is no effect and 100 is complete control, read-out: Kochia plant response rating
# Summary of the method: as §1
# [6] = tested on: giant foxtail (Setaria faberii); test: Test A preemergence; conditions: Setaria faberi, pre-emergence, 240 h, Preemergence
# Summary of the method: as §1
# [7] = tested on: ragweed (common ragweed, Ambrosia elatior); test: Test A postemergence; conditions: Ambrosia artemisiifolia, post-emergence, 240 h
# Summary of the method: as §1
# [8] = tested on: barnyardgrass (Echinochloa crus-galli); test: Test A postemergence; conditions: Echinochloa crus-galli, post-emergence, 240 h
# Summary of the method: as §1
# [9] = tested on: ryegrass, Italian (Italian ryegrass, Lolium multiflorum); test: Test A postemergence; conditions: Lolium multiflorum, post-emergence, 240 h
# Summary of the method: as §1
# [10] = tested on: pigweed (Amaranthus retroflexus); test: Test A postemergence; conditions: Amaranthus retroflexus, post-emergence, 240 h
# Summary of the method: as §1
# [11] = tested on: blackgrass (Alopecurus myosuroides); test: Test A postemergence; conditions: Alopecurus myosuroides, post-emergence, 240 h
# Summary of the method: as §1
# [12] = tested on: wheat (Triticum aestivum); test: Test A postemergence; conditions: Triticum aestivum, post-emergence, 240 h
# Summary of the method: as §1
# Kochia (Kochia scoparia) [13] = test: Test A postemergence; conditions: Bassia scoparia, post-emergence, 240 h
# Summary of the method: as §1
# [14] = tested on: Galium (catchweed bedstraw, Galium aparine); test: Test A postemergence; conditions: Galium, post-emergence, 240 h
# Summary of the method: as §1
# [15] = tested on: giant foxtail (Setaria faberii); test: Test A postemergence; conditions: Setaria faberi, post-emergence, 240 h
# Summary of the method: as §1
# corn (Zea mays) = test: Test A postemergence; conditions: Zea mays, post-emergence, 240 h
# Summary of the method: as §1
# [16] = tested on: ducksalad (Heteranthera limosa); test: Test B flooded paddy test; conditions: Heteranthera limosa, 250 g ai/ha, Flood; 0 to 100 scale where 0 is no effect and 100 is complete control; read-out: Ducksalad plant response rating
# Summary of the method: (§2)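 Visual ratings (0 none to 100 complete control) are relative to untreated plants, taken 13–15 d after treatment in a greenhouse. Test material went straight into floodwater standing 3 cm above the soil, kept constant, on plants at the 2-leaf stage.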
# [17] = tested on: barnyardgrass (Echinochloa crus-galli); test: Test B flooded paddy test; conditions: Echinochloa crus-galli, 250 g ai/ha, Flood; 0 to 100 scale where 0 is no effect and 100 is complete control; read-out: Barnyardgrass plant response rating
# Summary of the method: as §2
# rice (Oryra sativa) = test: Test B flooded paddy test; conditions: Oryza sativa, 250 g ai/ha, Flood; 0 to 100 scale where 0 is no effect and 100 is complete control; read-out: Rice plant response rating
# Summary of the method: as §2
# [18] = tested on: sedge, umbrella (small-flower umbrella sedge, Cyperus difformis); test: Test B flooded paddy test; conditions: Cyperus difformis, 250 g ai/ha, Flood; 0 to 100 scale where 0 is no effect and 100 is complete control; read-out: Sedge, Umbrella plant response rating
# Summary of the method: as §2
# [19] = 125 g ai/ha, preemergence, approx. 10 d
structure (smiles),measurement,setting,value
COCc1ccccc1NC(=O)[C@H]1C(=O)N(C)C[C@@H]1c1cccc(C(F)(F)F)c1 (racemic) [Compound 1060],pest or weed control at 31 g/ha,"[1]; 31 g ai/ha, Preemergence",0%
same,pest or weed control at 125 g/ha,[1]; [19],30%
same,pest or weed control at 125 g/ha,"[2]; 125 g ai/ha, visual injury rating after approximately 10 d, read-out: Barnyardgrass plant response rating (0 to 100 scale, 0 is no effect, 100 is complete control)",100%
same,pest or weed control at 31 g/ha,"[2]; 31 g ai/ha, 0 to 100 scale (0 no effect, 100 complete control), read-out: Plant response rating, Barnyardgrass",90%
same,pest or weed control at 31 g/ha,"[3]; 31 g ai/ha, Preemergence",50%
same,pest or weed control at 125 g/ha,[3]; [19],60%
same,pest or weed control at 31 g/ha,"[4]; 31 g ai/ha, Preemergence",0%
same,pest or weed control at 125 g/ha,[4]; [19],30%
same,pest or weed control at 31 g/ha,"Kochia (Kochia scoparia) [5]; 31 g ai/ha, Preemergence",0%
same,pest or weed control at 125 g/ha,Kochia (Kochia scoparia) [5]; [19],0%
same,pest or weed control at 125 g/ha,"[6]; 125 g ai/ha, visual injury rating after approximately 10 d, read-out: Foxtail, Giant plant response rating (0 to 100 scale, 0 is no effect, 100 is complete control)",100%
same,pest or weed control at 31 g/ha,"[6]; 31 g ai/ha, 0 to 100 scale (0 no effect, 100 complete control), read-out: Plant response rating, Foxtail, Giant",90%
same,pest or weed control at 125 g/ha,"[7]; 125 g ai/ha, postemergence, visual injury on 0 to 100 scale (0 no effect, 100 complete control), approx. 10 d, read-out: Ragweed plant response rating",30%
same,pest or weed control at 31 g/ha,"[7]; Postemergence, 31 g ai/ha, visual injury after approx. 10 d, 0 to 100 scale, 0 no effect, 100 complete control, read-out: Plant response rating, Ragweed",0%
same,pest or weed control at 125 g/ha,"[8]; 125 g ai/ha, postemergence, visual injury on 0 to 100 scale (0 no effect, 100 complete control), approx. 10 d, read-out: Barnyardgrass plant response rating",100%
same,pest or weed control at 31 g/ha,"[8]; Postemergence, 31 g ai/ha, visual injury after approx. 10 d, 0 to 100 scale, 0 no effect, 100 complete control, read-out: Plant response rating, Barnyardgrass",90%
same,pest or weed control at 125 g/ha,"[9]; 125 g ai/ha, postemergence, visual injury on 0 to 100 scale (0 no effect, 100 complete control), approx. 10 d, read-out: Ryegrass, Italian plant response rating",50%
same,pest or weed control at 31 g/ha,"[9]; Postemergence, 31 g ai/ha, visual injury after approx. 10 d, 0 to 100 scale, 0 no effect, 100 complete control, read-out: Plant response rating, Ryegrass, Italian",50%
same,pest or weed control at 125 g/ha,"[10]; 125 g ai/ha, postemergence, visual injury on 0 to 100 scale (0 no effect, 100 complete control), approx. 10 d, read-out: Pigweed plant response rating",0%
same,pest or weed control at 31 g/ha,"[10]; Postemergence, 31 g ai/ha, visual injury after approx. 10 d, 0 to 100 scale, 0 no effect, 100 complete control, read-out: Plant response rating, Pigweed",0%
same,pest or weed control at 125 g/ha,"[11]; 125 g ai/ha, postemergence, visual injury on 0 to 100 scale (0 no effect, 100 complete control), approx. 10 d, read-out: Blackgrass plant response rating",60%
same,pest or weed control at 31 g/ha,"[11]; Postemergence, 31 g ai/ha, visual injury after approx. 10 d, 0 to 100 scale, 0 no effect, 100 complete control, read-out: Plant response rating, Blackgrass",50%
same,plant injury at 125 g/ha,"[12]; 125 g ai/ha, postemergence, visual injury on 0 to 100 scale (0 no effect, 100 complete control), approx. 10 d, read-out: Wheat plant response rating",70%
same,plant injury at 31 g/ha,"[12]; Postemergence, 31 g ai/ha, visual injury after approx. 10 d, 0 to 100 scale, 0 no effect, 100 complete control, read-out: Plant response rating, Wheat",30%
same,pest or weed control at 125 g/ha,"Kochia (Kochia scoparia) [13]; 125 g ai/ha, postemergence, visual injury on 0 to 100 scale (0 no effect, 100 complete control), approx. 10 d, read-out: Kochia plant response rating",0%
same,pest or weed control at 31 g/ha,"Kochia (Kochia scoparia) [13]; Postemergence, 31 g ai/ha, visual injury after approx. 10 d, 0 to 100 scale, 0 no effect, 100 complete control, read-out: Plant response rating, Kochia",0%
same,pest or weed control at 125 g/ha,"[14]; 125 g ai/ha, postemergence, visual injury on 0 to 100 scale (0 no effect, 100 complete control), approx. 10 d, read-out: Galium plant response rating",40%
same,pest or weed control at 31 g/ha,"[14]; Postemergence, 31 g ai/ha, visual injury after approx. 10 d, 0 to 100 scale, 0 no effect, 100 complete control, read-out: Plant response rating, Galium",0%
same,pest or weed control at 125 g/ha,"[15]; 125 g ai/ha, postemergence, visual injury on 0 to 100 scale (0 no effect, 100 complete control), approx. 10 d, read-out: Foxtail, Giant plant response rating",90%
same,pest or weed control at 31 g/ha,"[15]; Postemergence, 31 g ai/ha, visual injury after approx. 10 d, 0 to 100 scale, 0 no effect, 100 complete control, read-out: Plant response rating, Foxtail, Giant",90%
same,plant injury at 125 g/ha,"corn (Zea mays); 125 g ai/ha, postemergence, visual injury on 0 to 100 scale (0 no effect, 100 complete control), approx. 10 d, read-out: Corn plant response rating",90%
same,"Corn plant response rating (crop injury, 0 = no effect, 100 = complete kill) at 31 g/ha","corn (Zea mays); Postemergence, 31 g ai/ha, visual injury after approx. 10 d, 0 to 100 scale, 0 no effect, 100 complete control",70%
same,pest or weed control at 250 g/ha,[16],90%
same,pest or weed control at 250 g/ha,[17],75%
same,pest or weed control at 250 g/ha,rice (Oryra sativa),20%
same,pest or weed control at 250 g/ha,[18],0%
